Inhibition of growth and pest or weed control data for 36 compounds are collected here from patent publication US20210002232A1, “HETEROCYCLIC COMPOUNDS AS FUNGICIDES” (PI INDUSTRIES LTD., priority 2018, published 2021).

In the first experiment the test system is Pyricularia oryzae. Briefly: microbe, parasite or virus in culture. Format: cell-based. The note with it: 168 h, read-out: control.
With `CS(=O)(=NC(=O)c1ccc(C2=NOC(C(F)(F)F)N2)cc1)c1ccc(Cl)cc1` (stereo not drawn) [Compound 1, N-((4-chlorophenyl)(methyl)(oxo)-λ^6-sulfaneylidene)-4-(5-(trifluoromethyl)-4,5-dihydro-1,2,4-oxadiazol-3-yl)benzamide], the inhibition of growth at 300 ppm was more than 70%.
`CN(CCOc1ccccc1)C(=O)c1ccc(-c2noc(C(F)F)n2)cc1` [Compound 17, 4-(5-(difluoromethyl)-1,2,4-oxadiazol-3-yl)-N-methyl-N-(2-phenoxyethyl)benzamide]: the inhibition of growth at 300 ppm is more than 70%.
Same read-out and setting: to `CS(=O)(=NCc1ccc(C2=NOC(C(F)F)N2)cc1)c1ccccc1` (stereo not drawn) [Compound 27, ((4-(5-(difluoromethyl)-4,5-dihydro-1,2,4-oxadiazol-3-yl)benzyl)imino)(methyl)(phenyl)-λ^6-sulfanone] belongs more than 70%; to `CS(=O)(=NCc1ccc(-c2nc(C(F)F)n[nH]2)cc1)c1ccccc1` (stereo not drawn) [Compound 42, ((4-(3-(difluoromethyl)-1h-1,2,4-triazol-5-yl)benzyl)imino)(methyl)(phenyl)-λ^6-sulfanone], more than 70%.

The next experiment relates to Phakopsora pachyrhizi. Briefly: Phakopsora pachyrhizi test in soybean, preventive spray in greenhouse. Conditions: preventive spray on soybean plants, inoculated one day after treatment, compared to the untreated check, read-out: control (efficacy from disease severity rating). Format: in vivo.
As for `CS(=O)(=NC(=O)c1ccc(C2=NOC(C(F)(F)F)N2)cc1)c1ccc(Cl)cc1` (stereo not drawn) [Compound 1, N-((4-chlorophenyl)(methyl)(oxo)-λ^6-sulfaneylidene)-4-(5-(trifluoromethyl)-4,5-dihydro-1,2,4-oxadiazol-3-yl)benzamide], the pest or weed control at 500 ppm is more than 90%.
On the same count and under the same terms, to `CC(C)(C)C(=O)NCc1ccc(-c2n[nH]c(C(F)(F)F)n2)cc1` [Compound 3, N-(4-(5-(trifluoromethyl)-1h-1,2,4-triazol-3-yl)benzyl)pivalamide] belongs more than 90%; to `CC(C(=O)Nc1ccc(C2=NOC(C(F)(F)F)N2)cc1)c1ccccc1` (stereo not drawn) [Compound 20, 2-phenyl-N-(4-(5-(trifluoromethyl)-4,5-dihydro-1,2,4-oxadiazol-3-yl)phenyl)propanamide], more than 90%.
Same read-out and setting: to `CN(Cc1ccc(C2=NOC(C(F)(F)F)N2)cc1)C(=O)C1CC1` (stereo not drawn) [Compound 21, N-methyl-N-(4-(5-(trifluoromethyl)-4,5-dihydro-1,2,4-oxadiazol-3-yl)benzyl)cyclopropanecarboxamide] belongs more than 90%; to `CN(Cc1ccc(C2=NOC(C(F)(F)F)N2)cc1)C(=O)C1CCC1` (stereo not drawn) [Compound 22, N-methyl-N-(4-(5-(trifluoromethyl)-4,5-dihydro-1,2,4-oxadiazol-3-yl)benzyl)cyclobutanecarboxamide], more than 90%.
Still for that read-out and setting: under `O=C(Cc1ccccc1)Nc1ccc(C2=NOC(C(F)(F)F)N2)cc1` (stereo not drawn) [Compound 23, 2-phenyl-N-(4-(5-(trifluoromethyl)-4,5-dihydro-1,2,4-oxadiazol-3-yl)phenyl)acetamide] stands more than 90%; under `COc1ccc(S(C)(=O)=NC(=O)c2ccc(C3=NOC(C(F)(F)F)N3)cc2)cc1` (stereo not drawn) [Compound 25, N-((4-methoxyphenyl)(methyl)(oxo)-λ^6-sulfaneylidene)-4-(5-(trifluoromethyl)-4,5-dihydro-1,2,4-oxadiazol-3-yl)benzamide], more than 90%; under `O=C(Nc1ccc(Cl)cc1F)c1ccc(C2=NOC(C(F)(F)F)N2)cc1` (stereo not drawn) [Compound 29, N-(4-chloro-2-fluorophenyl)-4-(5-(trifluoromethyl)-4,5-dihydro-1,2,4-oxadiazol-3-yl)benzamide], more than 90%.
Take `Cn1nc(C(F)(F)F)nc1-c1ccc(S(=O)(=O)c2ccccc2)cc1` [Compound 34, 1-methyl-5-(4-(phenylsulfonyl)phenyl)-3-(trifluoromethyl)-1h-1,2,4-triazole]: the pest or weed control at 500 ppm is more than 90%.
On to `CS(=O)(=Nc1ccc(-c2n[nH]c(C(F)(F)F)n2)cc1)c1ccc(C(F)(F)F)cc1` (stereo not drawn) [Compound 40, Methyl((4-(5-(trifluoromethyl)-1h-1,2,4-triazol-3-yl)phenyl)imino)(4-(trifluoromethyl)phenyl)-λ^6-sulfanone], for which the pest or weed control at 500 ppm was more than 90%.
`COc1ccc(S(C)(=O)=Nc2ccc(-c3n[nH]c(C(F)(F)F)n3)cc2)cc1` (stereo not drawn) [Compound 43, (4-methyoxyphenyl)(methyl)((4-(5-(trifluoromethyl)-1h-1,2,4-triazol-3-yl)phenyl)imino)-λ^6-sulfanone]: the pest or weed control at 500 ppm is more than 90%.
Same read-out and setting: to `O=C(Nc1ccc(F)cc1F)c1ccc(-c2nc(C(F)(F)F)n[nH]2)cc1` [Compound 44, N-(2,4-difluorophenyl)-4-(3-(trifluoromethyl)-1h-1,2,4-triazol-5-yl)benzamide] belongs more than 90%.
On to `CS(=O)(=NCc1ccc(-c2n[nH]c(C(F)(F)F)n2)cc1)c1cccnc1` (stereo not drawn) [Compound 47, Methyl(pyridin-3-yl)((4-(5-(trifluoromethyl)-1h-1,2,4-triazol-3-yl)benzyl)imino)-λ^6-sulfanone], for which the pest or weed control at 500 ppm was more than 90%.
On the same count and under the same terms, to `O=C(O)c1ccc(-c2cc(C(F)(F)F)on2)cc1` [Compound 56, 4-(5-(trifluoromethyl)isoxazol-3-yl)benzoic acid] belongs more than 90%; to `O=C(Nc1ccc(F)cc1F)c1ccc(-c2cc(C(F)(F)F)on2)cc1` [Compound 57, N-(2,4-difluorophenyl)-4-(5-(trifluoromethyl)isoxazol-3-yl)benzamide], more than 90%.
On the same count and under the same terms, to `CN(CCOc1ccccc1)C(=O)c1ccc(-c2cc(C(F)(F)F)on2)cc1` [Compound 65, N-methyl-N-(2-phenoxyethyl)-4-(5-(trifluoromethyl)isoxazol-3-yl)benzamide] belongs more than 90%.
Same read-out and setting: to `CS(=O)(=NC(=O)c1ccc(-c2cc(C(F)(F)F)on2)cc1)c1ccccc1` (stereo not drawn) [Compound 66, N-(methyl(oxo)(phenyl)-λ^6-sulfaneylidene)-4-(5-(trifluoromethyl)isoxazol-3-yl)benzamide] belongs more than 90%.
Turning to `CS(=O)(=NC(=O)c1ccc(-c2coc(C(F)(F)F)n2)cc1)c1ccc(F)cc1` (stereo not drawn) [Compound 69, N-((4-fluorophenyl)(methyl)(oxo)-λ^6-sulfaneylidene)-4-(2-(trifluoromethyl)oxazol-4-yl)benzamide], the pest or weed control at 500 ppm is more than 90%.
Turning to `O=C(Nc1ccc(F)cc1F)c1ccc(-c2nc(C(F)(F)F)oc2Cl)cc1` [Compound 70, 4-(5-chloro-2-(trifluoromethyl)oxazol-4-yl)-N-(2,4-difluorophenyl)benzamide], the pest or weed control at 500 ppm was more than 90%.
On the same count and under the same terms, to `CN(CCOc1ccccc1)C(=O)c1ccc(-c2nc(C(F)(F)F)oc2Cl)cc1` [Compound 71, 4-(5-chloro-2-(trifluoromethyl)oxazol-4-yl)-N-methyl-N-(2-phenoxyethyl)benzamide] belongs more than 90%; to `CS(=O)(=NC(=O)c1ccc(-c2coc(C(F)(F)F)n2)cc1)c1ccc(Cl)cc1` (stereo not drawn) [Compound 72, N-((4-chlorophenyl)(methyl)(oxo)-λ^6-sulfaneylidene)-4-(2-(trifluoromethyl)oxazol-4-yl)benzamide], more than 90%.
On the same count and under the same terms, to `CS(=O)(=NC(=O)c1ccc(-c2nc(C(F)(F)F)oc2Cl)cc1)c1ccccc1` (stereo not drawn) [Compound 74, 4-(5-chloro-2-(trifluoromethyl)oxazol-4-yl)-N-(methyl(oxo)(phenyl)-λ^6-sulfaneylidene)benzamide] belongs more than 90%; to `O=C(Nc1ccc(F)cc1F)c1ccc(-c2coc(C(F)(F)F)n2)cc1` [Compound 77, N-(2,4-difluorophenyl)-4-(2-(trifluoromethyl)oxazol-4-yl)benzamide], more than 90%; to `O=C(Nc1c(F)cccc1F)c1ccc(-c2coc(C(F)(F)F)n2)cc1` [Compound 80, N-(2,6-difluorophenyl)-4-(2-(trifluoromethyl)oxazol-4-yl)benzamide], more than 90%.
Same read-out and setting: to `CS(=O)(=NC(=O)c1ccc(-c2coc(C(F)(F)F)n2)cc1)c1ccccc1` (stereo not drawn) [Compound 83, N-(methyl(oxo)(phenyl)-λ^6-sulfaneylidene)-4-(2-(trifluoromethyl)oxazol-4-yl)benzamide] belongs more than 90%.

The test system of a further experiment is Alternaria solani. The experiment in a line: Alternaria solani (early blight of tomato/potato) mycelial radial growth on Potato Dextrose Agar. The note with it: 168 h, read-out: control.
Protocol: Compounds were dissolved in 0.3% DMSO & then added to Potato Dextrose Agar medium just prior to dispensing it into Petri dishes. 5 ml medium with compound in the desired concentration was dispensed into 60 mm sterile petri-plates. After solidification each plate was seeded with 5 mm size mycelial disc taken form periphery of actively growing virulent culture plate. Plates were incubated in growth chambers at 25° C. temperature and 60% relative humidity for seven days and radial growth was measured.
Take `CN(CCOc1ccccc1)C(=O)c1ccc(-c2n[nH]c(C(F)(F)F)n2)cc1` [Compound 11, N-methyl-N-(2-phenoxyethyl)-4-(5-(trifluoromethyl)-1h-1,2,4-triazol-3-yl)benzamide]: the inhibition of growth at 300 ppm was more than 70%.
Same read-out and setting: under `COc1ccc(S(C)(=O)=NC(=O)c2ccc(C3=NOC(C(F)(F)F)N3)cc2)cc1` (stereo not drawn) [Compound 25, N-((4-methoxyphenyl)(methyl)(oxo)-λ^6-sulfaneylidene)-4-(5-(trifluoromethyl)-4,5-dihydro-1,2,4-oxadiazol-3-yl)benzamide] stands more than 70%; under `CS(=O)(=Nc1ccc(C2=NOC(C(F)(F)F)N2)cc1)c1ccc(C(F)(F)F)cc1` (stereo not drawn) [Compound 26, Methyl((4-(5-(trifluoromethyl)-4,5-dihydro-1,2,4-oxadiazol-3-yl)phenyl)imino)(4-(trifluoromethyl)phenyl)-λ^6-sulfanone], more than 70%.
The same measure, in the same setting: to `O=C(Cc1ccccc1)Nc1ccc(-c2noc(C(F)F)n2)cc1` [Compound 31, N-(4-(5-(difluoromethyl)-1,2,4-oxadiazol-3-yl)phenyl)-2-phenylacetamide] belongs more than 70%; to `CN(Cc1ccc(-c2n[nH]c(C(F)(F)F)n2)cc1)C(=O)C1CC1` [Compound 37, N-methyl-N-(4-(5-(trifluoromethyl)-1h-1,2,4-triazol-3-yl)benzyl)cyclopropanecarboxamide], more than 70%; to `CN(Cc1ccc(-c2n[nH]c(C(F)(F)F)n2)cc1)C(=O)C1CCC1` [Compound 38, N-methyl-N-(4-(5-(trifluoromethyl)-1h-1,2,4-triazol-3-yl)benzyl)cyclobutanecarboxamide], more than 70%.
Same read-out and setting: under `O=C(O)c1ccc(-c2cc(C(F)(F)F)on2)cc1` [Compound 56, 4-(5-(trifluoromethyl)isoxazol-3-yl)benzoic acid] stands more than 70%; under `CS(=O)(=NC(=O)c1ccc(-c2cc(C(F)(F)F)on2)cc1)c1ccccn1` (stereo not drawn) [Compound 62, N-(methyl(oxo)(pyridin-2-yl)-λ^6-sulfaneylidene)-4-(5-(trifluoromethyl)isoxazol-3-yl)benzamide], more than 70%; under `COc1ccc(S(C)(=O)=NC(=O)c2ccc(-c3coc(C(F)(F)F)n3)cc2)cc1` (stereo not drawn) [Compound 78, N-((4-methoxyphenyl)(methyl)(oxo)-λ^6-sulfaneylidene)-4-(2-(trifluoromethyl)oxazol-4-yl)benzamide], more than 70%.
As for `O=C(Nc1ccccc1)c1ccc(-c2coc(C(F)(F)F)n2)cc1` [Compound 81, N-phenyl-4-(2-(trifluoromethyl)oxazol-4-yl)benzamide], the inhibition of growth at 300 ppm is more than 70%.
